This is an account of results in patent US9365522B2, “Pyrazole amide derivative” (AMGEN INC., priority 2015, dated 2016).

The target in the test is T1, human RORγ-LBD (Homo sapiens, UniProt P51449).
T1 construct: made in house; host or cells: E. coli (BL-21)
T1 sequence (P51449 262-518): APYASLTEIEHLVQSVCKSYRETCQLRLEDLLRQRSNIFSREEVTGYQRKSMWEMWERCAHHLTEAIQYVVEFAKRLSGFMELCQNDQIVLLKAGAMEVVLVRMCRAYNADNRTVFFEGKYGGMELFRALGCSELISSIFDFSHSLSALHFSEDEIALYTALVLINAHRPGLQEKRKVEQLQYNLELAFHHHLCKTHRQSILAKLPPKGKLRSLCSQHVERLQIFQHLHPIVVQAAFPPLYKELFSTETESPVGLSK
Nature of the test: ROR gamma coactivator peptide recruitment Alphascreen assay (RORγ-LBD binding to GRIP1 coactivator peptide). As to conditions: 5 nM human RORγ-LBD, 30 nM 7-β-hydroxycholesterol, 50 nM biotinylated GRIP1 coactivator peptide, overnight incubation at room temperature; read-out: result (pIC50, RORγ coactivator peptide recruitment Alphascreen assay) (converted). The format is biochemical. In outline:
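His/Flag-tagged human RORγ-LBD (aa 262-518, E. coli-expressed, 5 nM) with agonist 7-β-hydroxycholesterol (30 nM) and biotinylated GRIP1 LXXLL peptide (50 nM) in HEPES pH 7.4 buffer, 2.5% DMSO. Compound 1-in-2 dilutions; Alphascreen bead signal read after overnight incubation at room temperature; pIC50 calculated.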
Regarding `COc1cc(Cl)c(C(=O)CN(CC2CC(C)(C)C2)C(=O)c2cnn([C@H]3CC[C@H](C(=O)O)CC3)c2C(F)(F)F)c(Cl)c1` [Example 580, trans-4-(4-((2-(2,6-dichloro-4-methoxyphenyl)-2-oxoethyl)((3,3-dimethylcyclobutyl)methyl)carbamoyl)-5-(trifluoromethyl)-1H-pyrazol-1-yl)cyclohexanecarboxylic acid], the IC50 is 5.01 nM.

In the case of `COc1cc(Cl)c(C(=O)CN(CC2CC(C)(C)C2)C(=O)c2cnn([C@H]3CC[C@](C)(C(=O)O)CC3)c2C(F)(F)F)c(Cl)c1` [Example 581], the IC50 is 3.47 nM.

For the compound `C[C@]1(C(=O)O)CC[C@H](n2ncc(C(=O)N3CC4(CCCC4)C[C@@H]3Cc3c(Cl)cncc3Cl)c2C(F)(F)F)CC1` [Example 582, trans-4-(4-(((3R)-3-((3,5-dichloro-4-pyridinyl)methyl)-2-azaspiro[4.4]non-2-yl)carbonyl)-5-(trifluoromethyl)-1H-pyrazol-1-yl)-1-methylcyclohexanecarboxylic acid], the IC50 was 22.9 nM.

Turning to `Cc1cc(Cl)c(C(=O)CN(CC2CC3(CC3)C2)C(=O)c2cnn([C@H]3CC[C@](C)(C(=O)O)CC3)c2C(F)(F)F)c(Cl)c1` [Example 583, trans-4-(4-((2-(2,6-dichloro-4-methylphenyl)-2-oxoethyl)(spiro[2.3]hex-5-ylmethyl)carbamoyl)-5-(trifluoromethyl)-1H-pyrazol-1-yl)-1-methylcyclohexanecarboxylic acid], the IC50 was 2.4 nM.

Consider `COc1cc(Cl)c(C(=O)CN(CC2(F)CCCC2)C(=O)c2cnn([C@H]3CC[C@](C)(C(=O)O)CC3)c2C(F)(F)F)c(Cl)c1` [Example 584, trans-4-(4-((2-(2,6-dichloro-4-methoxyphenyl)-2-oxoethyl)((1-fluorocyclopentyl)methyl)carbamoyl)-5-(trifluoromethyl)-1H-pyrazol-1-yl)-1-methylcyclohexanecarboxylic acid], for which the IC50 was 5.75 nM.

Turning to `CC1(C)CC(CN(CC(=O)c2ccccc2Br)C(=O)c2cnn([C@H]3CC[C@@H](C(=O)O)CC3)c2C(F)(F)F)C1` [Example 585, cis-4-(4-((2-(2-bromophenyl)-2-oxoethyl)((3,3-dimethylcyclobutyl)methyl)carbamoyl)-5-(trifluoromethyl)-1H-pyrazol-1-yl)cyclohexanecarboxylic acid], the IC50 was 69.2 nM.

As to `CC1(C)CC(N(CC(=O)c2c(Cl)cncc2Cl)C(=O)c2cnn([C@H]3CC[C@](C)(C(=O)O)CC3)c2C(F)(F)F)C1` [Example 587, trans-4-(4-((2-(3,5-dichloro-4-pyridinyl)-2-oxoethyl)(3,3-dimethylcyclobutyl)carbamoyl)-5-(trifluoromethyl)-1H-pyrazol-1-yl)-1-methylcyclohexanecarboxylic acid], the IC50 is 67.6 nM.

Take `CC1(CN(CC(=O)c2c(Cl)cncc2Cl)C(=O)c2cnn([C@H]3CC[C@](C)(C(=O)O)CC3)c2C(F)(F)F)CCCCC1` [Example 588, trans-4-(4-((2-(3,5-dichloro-4-pyridinyl)-2-oxoethyl)((1-methylcyclohexyl)methyl)carbamoyl)-5-(trifluoromethyl)-1H-pyrazol-1-yl)-1-methylcyclohexanecarboxylic acid]: the IC50 is 3.31 nM.

On to `CC1(C)CC(CN(CC(=O)c2ccccc2Br)C(=O)c2cnn([C@H]3CC[C@](C)(C(=O)O)CC3)c2C(F)(F)F)C1` [Example 589, trans-4-(4-((2-(2-bromophenyl)-2-oxoethyl)((3,3-dimethylcyclobutyl)methyl)carbamoyl)-5-(trifluoromethyl)-1H-pyrazol-1-yl)-1-methylcyclohexanecarboxylic acid], for which the IC50 was 42.7 nM.

Take `COc1cc(Cl)c(C(=O)CN(CC2(F)CCCC2)C(=O)c2cnn([C@H]3CC[C@@H](C(=O)O)CC3)c2C(F)(F)F)c(Cl)c1` [Example 590, cis-4-(4-((2-(2,6-dichloro-4-methoxyphenyl)-2-oxoethyl)((1-fluorocyclopentyl)methyl)carbamoyl)-5-(trifluoromethyl)-1H-pyrazol-1-yl)cyclohexanecarboxylic acid]: the IC50 was 174 nM.
